Assays:
Format in all cases: in vivo
Barnyard grass [1] = assay: Herbicidal activity test for indoor pre-emergence soil treatment; set-up: key: level 1-9; higher = more weed remaining vs blank control; details: 150 g a.i./ha, visual inspection 21 days after treatment
Procedure, shortened: (§1)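 Pre-emergence soil spray per NY/T 1155.3-2006: weed seeds sown in moistened neutral sandy loam (organic content ≤2%), covered with 0.5–2.0 cm soil, then sprayed 24 h later with a water-diluted 10% emulsifiable concentrate at 150 g(a.i.)/ha. Visual rating after 21 days on a 1–9 scale.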

Piemarker [2] = assay: as above; set-up: key: level 1-9; higher = more weed remaining vs blank control; details: 150 g a.i./ha, visual inspection 21 days after treatment
Procedure, shortened: as §1

green bristlegrass [3] = assay: as above; set-up: key: level 1-9; higher = more weed remaining vs blank control; details: 150 g a.i./ha, visual inspection 21 days after treatment
Procedure, shortened: as §1

Amaranthus retroflexus [4] = assay: as above; set-up: key: 1-9 levels; higher = more weed remaining vs blank control; details: 150 g a.i./ha, visual inspection 21 days after treatment
Procedure, shortened: as §1

Digitaria sanguinalis [5] = assay: as above; set-up: key: 1-9 levels; higher = more weed remaining vs blank control; details: 150 g a.i./ha, visual inspection 21 days after treatment
Procedure, shortened: as §1

Humulus scandens [6] = assay: as above; details: 150 g a.i./ha, visual inspection 21 days after treatment
Procedure, shortened: as §1

Amaranthus retroflexus [7] = assay: Herbicidal activity test for indoor post-emergence spraying on stems and leaves; set-up: key: grade level by weed remaining vs blank control, e.g. 5 = 10.1-15%; details: 150 g a.i./ha, visual inspection 21 days after treatment
Procedure, shortened: (§2)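 Run per NY/T 1155.4-2006: weeds sown, grown in greenhouse, then sprayed post-emergence on stems and leaves. Effect scored visually 21 days after treatment on a graded level scale relative to weed in the blank control area.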

Barnyard grass [8] = assay: as above; set-up: key: grade level by weed remaining vs blank control, e.g. 5 = 10.1-15%; details: 150 g a.i./ha, visual inspection 21 days after treatment
Procedure, shortened: as §2

Digitaria sanguinalis [9] = assay: as above; set-up: key: grade level by weed remaining vs blank control, e.g. 5 = 10.1-15%; details: 150 g a.i./ha, visual inspection 21 days after treatment
Procedure, shortened: as §2

Humulus scandens [10] = assay: as above; set-up: key: grade level by weed remaining vs blank control, e.g. 5 = 10.1-15%; details: 150 g a.i./ha, visual inspection 21 days after treatment
Procedure, shortened: as §2

Piemarker [11] = assay: as above; set-up: key: grade level by weed remaining vs blank control, e.g. 5 = 10.1-15%; details: 150 g a.i./ha, visual inspection 21 days after treatment
Procedure, shortened: as §2

green bristlegrass [12] = assay: as above; set-up: key: grade level by weed remaining vs blank control, e.g. 5 = 10.1-15%; details: 150 g a.i./ha, visual inspection 21 days after treatment
Procedure, shortened: as §2

Broadleaf weed = assay: Post-emergence herbicidal activity test in a paddy field; set-up: key: level scale; higher level = more weed left vs blank control; details: 150 g a.i./ha (penoxsulam control 250 g(a.i.)/h)
Procedure, shortened: (§3)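 Efficacy was visually estimated 15 and 30 days after spraying, grading weed coverage relative to an untreated neighbouring plot (level 2 = 0 to 2.5%, level 9 = 67.6 to 100%). Treatments were 150 g(a.i.)/ha from 10% emulsifiable concentrates applied at the 4-5 leaf rice stage, four repeats of 50 m^2 each.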

Cyperaceae = assay: as above; set-up: key: level scale; higher level = more weed left vs blank control; details: 150 g a.i./ha (penoxsulam control 250 g(a.i.)/h)
Procedure, shortened: as §3

Gramineae = assay: as above; set-up: key: level scale; higher level = more weed left vs blank control; details: 150 g a.i./ha (penoxsulam control 250 g(a.i.)/h)
Procedure, shortened: as §3

Acalypha australis = assay: Field test for weed control in a corn field; details: 150 g a.i./ha, after treatment
Procedure, shortened: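 Post-emergence field trial in a corn field following GB/T 17980.42-2000. Test compounds were formulated as 10% emulsifiable concentrates, diluted in water, and sprayed at 150 g(a.i.)/ha when corn had 2 to 5 leaves, with 4 replicates on 20 m^2 plots. Mesotrione 25% oil dispersion served as the control agent. Weed control was scored on a 1-9 scale.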

Amaranthus retroflexus [13] = assay: Field test for weed control in a corn field; details: 150 g a.i./ha, 30 days after treatment
Procedure, shortened: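 Field efficacy trial in a corn field following GB/T 17980.42-2000. Test compounds were formulated as 10% emulsifiable concentrates, diluted in water and sprayed post-emergence when corn had 2 to 5 leaves. Each treatment covered 20 m^2 with 4 replicates. A 25% mesotrione oil dispersion served as control. Damage to Amaranthus retroflexus was rated on a 1-9 scale against untreated blank plots.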

Barnyard grass [14] = assay: Field test for weed control in a corn field; details: 150 g a.i./ha, 30 days after treatment
Procedure, shortened: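 Corn-field efficacy trial following GB/T 17980.42-2000. Test compounds were formulated as 10% emulsifiable concentrates, diluted in water and sprayed post-emergence at 150 g(a.i.)/ha when corn had 2 to 5 leaves. Each treatment was replicated 4 times on 20 m^2 plots. Barnyard grass control was rated on a 1-9 damage scale.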

Chenopodium album = assay: Field test for weed control in a corn field; details: 150 g a.i./ha, after treatment
Procedure, shortened: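 A corn-field efficacy trial following GB/T 17980.42-2000 tested post-emergence control of Chenopodium album. Test compounds formulated as 10% emulsifiable concentrates were diluted in water and sprayed at 150 g(a.i.)/ha when the corn had 2 leaves to 5 leaves, on 20 m^2 plots with 4 replicates. Herbicidal activity was rated on a 1-9 scale by damage symptoms and severity.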

Convolvulus arvensis = assay: Field test for weed control in a corn field; details: 150 g a.i./ha, after treatment
Procedure, shortened: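 Field trial of weed control against Convolvulus arvensis in corn, run following GB/T 17980.42-2000. Test agents were formulated as 10% emulsifiable concentrates and sprayed in water at 150 g(a.i.)/ha when corn plants had 2 to 5 leaves. Each treatment was replicated 4 times on 20 m^2 plots, and 25% mesotrione oil dispersion served as the control agent.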

Digitaria sanguinalis [15] = assay: Field test for weed control in a corn field; details: 150 g a.i./ha, after treatment
Procedure, shortened: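 Field trial in a corn field following GB/T 17980.42-2000. Test compounds were formulated as 10% emulsifiable concentrates, diluted in water and sprayed post-emergence at 150 g(a.i.)/ha when corn had 2 to 5 leaves, with 4 replicates on 20 m^2 plots. Control of Digitaria sanguinalis was scored on a 1-9 scale based on weed damage relative to the untreated blank area.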

Portulaca oleracea = assay: Field test for weed control in a corn field; details: 150 g a.i./ha, after treatment
Procedure, shortened: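 Field efficacy trial in corn following GB/T 17980.42-2000. Test compounds were prepared as 10% emulsifiable concentrates, diluted in water, and sprayed at 150 g(a.i.)/ha when corn had 2 to 5 leaves after sowing. Plots were 20 m^2 with 4 replicates per treatment. Herbicidal activity was scored on a 1-9 scale from weed damage symptoms and severity.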

Solanum nigrum = assay: Field test for weed control in a corn field; details: 150 g a.i./ha, 30 days after treatment
Procedure, shortened: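 Post-emergence weed control was tested in a corn field following GB/T 17980.42-2000. Compounds were made into 10% emulsifiable concentrates, diluted in water and sprayed at 150 g(a.i.)/ha when corn had 2 to 5 leaves after sowing, in 20 m^2 plots with 4 replicates. Effects on Solanum nigrum were graded on a 1-9 scale relative to the blank control area.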

goosegrass = assay: Field test for weed control in a corn field; details: 150 g a.i./ha, after treatment
Procedure, shortened: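 Weed control efficacy against goosegrass was tested in a corn field following GB/T 17980.42-2000. Compounds formulated as 10% emulsifiable concentrates were diluted in water and sprayed post-emergence at 150 g(a.i.)/ha when corn had 2 to 5 leaves, with 4 replicates of 20 m^2 plots. Herbicidal activity was rated on a 1-9 scale by damage symptoms and severity.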

green bristlegrass [16] = assay: Field test for weed control in a corn field; details: 150 g a.i./ha, after treatment
Procedure, shortened: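 Post-emergence weed control was tested in a corn field following GB/T 17980.42-2000. When the corn had 2 leaves to 5 leaves after sowing, 10% emulsifiable concentrates diluted in water were sprayed at 150 g(a.i.)/ha on 20 m^2 plots, four replicates per treatment. Effects on green bristlegrass were scored on a 1-9 damage scale relative to the blank control area.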

nutgrass flatsedge = assay: Field test for weed control in a corn field; details: 150 g a.i./ha, after treatment
Procedure, shortened: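 A corn field efficacy trial following GB/T 17980.42-2000 assessed post-emergence control of nutgrass flatsedge. Test compounds were formulated as 10% emulsifiable concentrates, diluted in water, and sprayed at 150 g(a.i.)/ha when the corn had 2 to 5 leaves. Each treatment had 4 replicates on 20 m^2 plots. Herbicidal activity was graded on a 1-9 scale by damage symptoms and severity.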

| Structure (SMILES) | Herbicidal Activity Barnyard grass (Barnyard grass [1]) | Herbicidal Activity Piemarker (Piemarker [2]) | Herbicidal Activity Green bristlegrass (green bristlegrass [3]) | Herbicidal Activity Amaranthus retroflexus (Amaranthus retroflexus [4]) | Herbicidal Activity Digitaria sanguinalis (Digitaria sanguinalis [5]) | Herbicidal Activity Humulus scandens (Humulus scandens [6]) | Herbicidal Activity Amaranthus retroflexus (Amaranthus retroflexus [7]) | Herbicidal Activity Barnyard grass (Barnyard grass [8]) | Herbicidal Activity Digitaria sanguinalis (Digitaria sanguinalis [9]) | Herbicidal Activity Humulus scandens (Humulus scandens [10]) | Herbicidal Activity Piemarker (Piemarker [11]) | Herbicidal Activity Green bristlegrass (green bristlegrass [12]) | Herbicidal activity 15 days after treatment Broadleaf weed (Broadleaf weed) | Herbicidal activity 30 days after treatment Broadleaf weed (Broadleaf weed) | Herbicidal activity 15 days after treatment Cyperaceae (Cyperaceae) | Herbicidal activity 30 days after treatment Cyperaceae (Cyperaceae) | Herbicidal activity 15 days after treatment Gramineae (Gramineae) | Herbicidal activity 30 days after treatment Gramineae (Gramineae) | Post-emergence weed control effect, Acalypha australis (Acalypha australis) | Post-emergence weed control effect, Amaranthus retroflexus (Amaranthus retroflexus [13]) | other results |
| --- | --- | --- | --- | --- | --- | --- | --- | --- | --- | --- | --- | --- | --- | --- | --- | --- | --- | --- | --- | --- | --- |
| COc1ccc(OC)c(C(=O)NCc2cc(F)cc(F)c2)c1 [Compound A24] | 1 | 1 | 1 | 1 | 1 | 1 | 1 | 1 | 1 | 1 | 1 | 1 | 1 | 1 | 1 | 1 | 1 | 1 | 3 (equivalent to 2.6 to 5% of the weed in the blank control area) | 1 | Post-emergence weed control effect, Barnyard grass (Barnyard grass [14]): 1; Post-emergence weed control effect, Chenopodium album (Chenopodium album): 1; Post-emergence weed control effect, Convolvulus arvensis (Convolvulus arvensis): 1; Post-emergence weed control effect, Digitaria sanguinalis (Digitaria sanguinalis [15]): 2 (equivalent to 0 to 2.5% of the weed in the blank control area); Post-emergence weed control effect, Portulaca oleracea (Portulaca oleracea): 1; Post-emergence weed control effect, Solanum nigrum (Solanum nigrum): 2 (equivalent to 0 to 2.5% of the weed in the blank control area); Post-emergence weed control effect, Goose grass (goosegrass): 2 (equivalent to 0 to 2.5% of the weed in the blank control area); Post-emergence weed control effect, Green bristlegrass (green bristlegrass [16]): 1; Post-emergence weed control effect, Nutgrass flatsedge (nutgrass flatsedge): 3 (equivalent to 2.6 to 5% of the weed in the blank control area) |
| Cc1ccc(CNC(=O)c2cccc(C)c2)cc1 [Compound B15] | 1 | 1 | 2 (equivalent to 0 to 2.5% of the weed in the blank control area) | 2 (equivalent to 0 to 2.5% of the weed in the blank control area) | 1 | 3 (equivalent to 2.6 to 5% of the weed in the blank control area) | 1 | 1 | 1 | 1 | 1 | 1 | 1 | 1 | 1 | 2 (equivalent to 0 to 2.5% of the weed in the blank control area) | 2 (equivalent to 0 to 2.5% of the weed in the blank control area) | 1 | 1 | 1 | Post-emergence weed control effect, Barnyard grass (Barnyard grass [14]): 1; Post-emergence weed control effect, Chenopodium album (Chenopodium album): 1; Post-emergence weed control effect, Convolvulus arvensis (Convolvulus arvensis): 2 (equivalent to 0 to 2.5% of the weed in the blank control area); Post-emergence weed control effect, Digitaria sanguinalis (Digitaria sanguinalis [15]): 2 (equivalent to 0 to 2.5% of the weed in the blank control area); Post-emergence weed control effect, Portulaca oleracea (Portulaca oleracea): 1; Post-emergence weed control effect, Solanum nigrum (Solanum nigrum): 1; Post-emergence weed control effect, Goose grass (goosegrass): 2 (equivalent to 0 to 2.5% of the weed in the blank control area); Post-emergence weed control effect, Green bristlegrass (green bristlegrass [16]): 2 (equivalent to 0 to 2.5% of the weed in the blank control area); Post-emergence weed control effect, Nutgrass flatsedge (nutgrass flatsedge): 2 (equivalent to 0 to 2.5% of the weed in the blank control area) |
